Like-named read-outs stand apart in the source and are kept apart here.
Test system: 8×TBD luciferase reporter (YAP) in HEK293T cells
Experiment: YAP Reporter Assay (8×TBD firefly luciferase reporter)
Type: cell-based
Settings: Homo sapiens, HEK-293T
Method in brief: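 Stably transfected HEK293T cells (8×TBD firefly luciferase plus TK-renilla) were dosed with 10-point 1:3 dilutions from 3 μM final, quadruplicates, for 24 h at 37 °C. Dual-Glo read firefly and renilla luminescence; IC50 and maximal inhibition reported separately for each.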

[1] = 24 h, read-out: Firefly Luciferase IC50 (μM)
[2] = HEK293T cells stably transfected with 8×TBD luciferase reporter and pRLTK, 24-hr incubation, firefly luciferase activity, read-out: Firefly Luciferase IC50

Row | SMILES | IC50 [1] [µM] | IC50 [2] [µM]
1 | N#CCNC(=O)c1ccc2c(Oc3ccc(C(F)(F)F)cc3)cccc2c1 [Compound 22, N-(cyanomethyl)-5-(4-(trifluoromethyl)phenoxy)-2-naphthamid] | < 0.1 | 
2 | C[C@@H](NC(=O)c1ccc2c(Oc3ccc(C(F)(F)F)cc3)cccc2c1)c1cn(C)cn1 [Compound 91, N-[(1R)-1-(1-methylimidazol-4-yl)ethyl]-5-[4-(trifluoromethyl)phenoxy]naphthalene-2-carboxamide] |  | < 0.1
3 | CCN1CC([C@H](C)NC(=O)c2ccc3c(Oc4ccc(C(F)(F)F)cc4)cccc3c2)C1 [Compound 130, (S)—N-(1-(1-ethylazetidin-3-yl)ethyl)-5-(4-(trifluoromethyl)phenoxy)-2-naphthamide] |  | 0.1 to 1
4 | CC(C)NC(=O)c1cnc2c(Oc3ccc(C(F)(F)F)cc3)cccc2c1 [Compound 13, N-isopropyl-8-[4-(trifluoromethyl)phenoxy]quinoline-3-carboxamide] | < 0.1 | 
